In PubChem BioAssay AID1259407 (Chemical Carcinogenesis Research Information System (CCRIS), 2018) one finds mutagenic call data, which are given here for four compounds.

Entries after “also recorded” stand apart in the source; their conditions may differ. Calls of active or inactive are those of the source. The rule behind the calls is not given here.

The test system of the series is CCRIS mutagenicity, Ames/micronucleus/aberration tests. Put plainly: CCRIS mutagenicity studies.
Where [1] appears, read: Test System: AMES SALMONELLA TYPHIMURIUM, Strain/Indicator: TA97, Metabolic Activation: NONE, Method: PREINCUBATION
Where [2] appears, read: Test System: AMES SALMONELLA TYPHIMURIUM, Strain/Indicator: TA98, Metabolic Activation: HAMSTER, LIVER, S-9, AROCLOR 1254 (30%), Method: PREINCUBATION
The mark [3] stands for this setting: Test System: AMES SALMONELLA TYPHIMURIUM, Strain/Indicator: TA98, Metabolic Activation: NONE, Method: PREINCUBATION
Where [4] appears, read: Test System: AMES SALMONELLA TYPHIMURIUM, Strain/Indicator: TA98, Metabolic Activation: RAT, LIVER, S-9, AROCLOR 1254 (30%), Method: PREINCUBATION
Setting [5] is: Test System: AMES SALMONELLA TYPHIMURIUM, Strain/Indicator: TA100, Metabolic Activation: HAMSTER, LIVER, S-9, AROCLOR 1254 (30%), Method: PREINCUBATION
Where [6] appears, read: Test System: AMES SALMONELLA TYPHIMURIUM, Strain/Indicator: TA100, Metabolic Activation: NONE, Method: PREINCUBATION
The mark [7] stands for this setting: Test System: AMES SALMONELLA TYPHIMURIUM, Strain/Indicator: TA100, Metabolic Activation: RAT, LIVER, S-9, AROCLOR 1254 (30%), Method: PREINCUBATION
[8] abbreviates: Test System: AMES SALMONELLA TYPHIMURIUM, Strain/Indicator: TA1535, Metabolic Activation: NONE, Method: PREINCUBATION

Consider `O=Cc1ccc(Cl)c(Cl)c1`, for which the mutagenic call is, setting by setting: (Test System: AMES SALMONELLA TYPHIMURIUM, Strain/Indicator: TA97, Metabolic Activation: HAMSTER, LIVER, S-9, AROCLOR 1254 (10%), Method: PREINCUBATION) “inactive; negative”; (Test System: AMES SALMONELLA TYPHIMURIUM, Strain/Indicator: TA97, Metabolic Activation: HAMSTER, LIVER, S-9, AROCLOR 1254 (30%), Method: PREINCUBATION) “inactive; negative”; under setting [1], “inactive; negative”; (Test System: AMES SALMONELLA TYPHIMURIUM, Strain/Indicator: TA97, Metabolic Activation: RAT, LIVER, S-9, AROCLOR 1254 (10%), Method: PREINCUBATION) “inactive; negative”; (Test System: AMES SALMONELLA TYPHIMURIUM, Strain/Indicator: TA97, Metabolic Activation: RAT, LIVER, S-9, AROCLOR 1254 (30%), Method: PREINCUBATION) “inactive; negative”; (Test System: AMES SALMONELLA TYPHIMURIUM, Strain/Indicator: TA98, Metabolic Activation: HAMSTER, LIVER, S-9, AROCLOR 1254 (10%), Method: PREINCUBATION) “inactive; negative”. Also, the mutagenic call was “inactive; negative” under setting [2]; “inactive; negative” under setting [3]; “inactive; negative” (Test System: AMES SALMONELLA TYPHIMURIUM, Strain/Indicator: TA98, Metabolic Activation: RAT, LIVER, S-9, AROCLOR 1254 (10%), Method: PREINCUBATION); “inactive; negative” under setting [4]; “inactive; negative” (Test System: AMES SALMONELLA TYPHIMURIUM, Strain/Indicator: TA100, Metabolic Activation: HAMSTER, LIVER, S-9, AROCLOR 1254 (10%), Method: PREINCUBATION); “inactive; negative” under setting [5]. Moreover, the mutagenic call under setting [6] is “inactive; negative”; the mutagenic call (Test System: AMES SALMONELLA TYPHIMURIUM, Strain/Indicator: TA100, Metabolic Activation: RAT, LIVER, S-9, AROCLOR 1254 (10%), Method: PREINCUBATION) is “inactive; negative”; the mutagenic call under setting [7] was “inactive; negative”; the mutagenic call (Test System: AMES SALMONELLA TYPHIMURIUM, Strain/Indicator: TA104, Metabolic Activation: HAMSTER, LIVER, S-9, AROCLOR 1254 (10%), Method: PREINCUBATION) was “inactive; negative”; the mutagenic call (Test System: AMES SALMONELLA TYPHIMURIUM, Strain/Indicator: TA104, Metabolic Activation: HAMSTER, LIVER, S-9, AROCLOR 1254 (30%), Method: PREINCUBATION) is “inactive; negative”; the mutagenic call (Test System: AMES SALMONELLA TYPHIMURIUM, Strain/Indicator: TA104, Metabolic Activation: NONE, Method: PREINCUBATION) was “inactive; negative”. Further, the mutagenic call (Test System: AMES SALMONELLA TYPHIMURIUM, Strain/Indicator: TA104, Metabolic Activation: RAT, LIVER, S-9, AROCLOR 1254 (10%), Method: PREINCUBATION) was “inactive; negative”; the mutagenic call (Test System: AMES SALMONELLA TYPHIMURIUM, Strain/Indicator: TA104, Metabolic Activation: RAT, LIVER, S-9, AROCLOR 1254 (30%), Method: PREINCUBATION) is “inactive; negative”; the mutagenic call (Test System: AMES SALMONELLA TYPHIMURIUM, Strain/Indicator: TA1535, Metabolic Activation: HAMSTER, LIVER, S-9, AROCLOR 1254 (10%), Method: PREINCUBATION) is “inactive; negative”; the mutagenic call (Test System: AMES SALMONELLA TYPHIMURIUM, Strain/Indicator: TA1535, Metabolic Activation: HAMSTER, LIVER, S-9, AROCLOR 1254 (30%), Method: PREINCUBATION) was “inactive; negative”; the mutagenic call under setting [8] was “inactive; negative”; the mutagenic call (Test System: AMES SALMONELLA TYPHIMURIUM, Strain/Indicator: TA1535, Metabolic Activation: RAT, LIVER, S-9, AROCLOR 1254 (10%), Method: PREINCUBATION) was “inactive; negative”. For the setting “Test System: AMES SALMONELLA TYPHIMURIUM, Strain/Indicator: TA1535, Metabolic Activation: RAT, LIVER, S-9, AROCLOR 1254 (30%), Method: PREINCUBATION”, the mutagenic call is “inactive; negative”.
As to `O.O.O.[Fe].[Fe]`, the mutagenic call reads like this: under setting [1], “inactive; negative”; (Test System: AMES SALMONELLA TYPHIMURIUM, Strain/Indicator: TA97, Metabolic Activation: RAT, LIVER, S-9, AROCLOR 1254, Method: PREINCUBATION) “inactive; negative”; (Test System: AMES SALMONELLA TYPHIMURIUM, Strain/Indicator: TA102, Metabolic Activation: NONE, Method: PREINCUBATION) “inactive; negative”; (Test System: AMES SALMONELLA TYPHIMURIUM, Strain/Indicator: TA102, Metabolic Activation: RAT, LIVER, S-9, AROCLOR 1254, Method: PREINCUBATION) “inactive; negative”.
Take `COc1ccc(/C=C/c2cc(OC)cc(=O)o2)cc1`: for the setting “Test System: Mouse lymphoma cells, Strain/Indicator: L5178Y ( tk+/tk-), Metabolic Activation: Human, Liver, S-9, Method: Suspension/plate”, the mutagenic call was “inactive; negative”.
Turning to `COc1ccc(C)cc1N`, the mutagenic call is “active; positive (structural changes). toxicity at 1.2 mg/ml; also recorded: active; positive (structural changes). toxicity at 0.60 mg/ml; also recorded: active; positive (structural changes). toxicity at 0.8 mg/ml; no dose response observed” (End Point: In vitro chromosomal aberrations, Test System: Chinese hamster lung (CHL/IU) cells, Metabolic Activation: None); “active; positive (structural changes and ploidy). toxicity at 1.2 mg/ml; no dose respons” (End Point: In vitro chromosomal aberrations, Test System: Chinese hamster lung (CHL/IU) cells, Metabolic Activation: Rat, Liver, S9, Phenobarbital and 5,6-benzoflavone); “active; positive at all days” (End Point: In vivo micronucleus, Test System: Polychromatic erythrocytes, Species: Mouse, Strain/Sex: C57BL/6TacBr-[KO]p53[TSG-p53], Route: Oral); “active; positive” under setting [2]; “active; positive” (Test System: AMES SALMONELLA TYPHIMURIUM, Strain/Indicator: TA98, Metabolic Activation: HAMSTER, LIVER, S-9, PHENOBARBITAL AND BETA-NAPHTHOFLAVONE, Method: PREINCUBATION); “inactive; negative” under setting [3]. The mutagenic call reads like this: under setting [4], “active; positive”; under setting [5], “active; positive”; (Test System: AMES SALMONELLA TYPHIMURIUM, Strain/Indicator: TA100, Metabolic Activation: HAMSTER, LIVER, S-9, PHENOBARBITAL AND BETA-NAPHTHOFLAVONE, Method: PREINCUBATION) “active; positive”; under setting [6], “inactive; negative”; under setting [7], “active; positive”; (Test System: AMES SALMONELLA TYPHIMURIUM, Strain/Indicator: TA1535, Metabolic Activation: HAMSTER, LIVER, S-9, PHENOBARBITAL AND BETA-NAPHTHOFLAVONE, Method: PREINCUBATION) “inactive; negative”. Also, the mutagenic call is, setting by setting: under setting [8], “inactive; negative”; (Test System: AMES SALMONELLA TYPHIMURIUM, Strain/Indicator: TA1537, Metabolic Activation: HAMSTER, LIVER, S-9, PHENOBARBITAL AND BETA-NAPHTHOFLAVONE, Method: PREINCUBATION) “active; positive”; (Test System: AMES SALMONELLA TYPHIMURIUM, Strain/Indicator: TA1537, Metabolic Activation: NONE, Method: PREINCUBATION) “inactive; negative”; (Test System: E. COLI, Strain/Indicator: WP2UVRA, Metabolic Activation: HAMSTER, LIVER, S-9, PHENOBARBITAL AND BETA-NAPHTHOFLAVONE, Method: PREINCUBATION) “inactive; negative”; (Test System: E. COLI, Strain/Indicator: WP2 UVRA, Metabolic Activation: HAMSTER, LIVER, S-9, Method: STANDARD PLATE) “inactive; negative”; (Test System: E. COLI, Strain/Indicator: WP2 UVRA, Metabolic Activation: MOUSE, LIVER, S-9, AROCLOR 1254, Method: STANDARD PLATE) “inactive; negative”. Also, the mutagenic call reads like this: (Test System: E. COLI, Strain/Indicator: WP2UVRA, Metabolic Activation: NONE, Method: PREINCUBATION) “inactive; negative”; (Test System: E. COLI, Strain/Indicator: WP2 UVRA, Metabolic Activation: NONE, Method: STANDARD PLATE) “inactive; negative”; (Test System: E. COLI, Strain/Indicator: WP2 UVRA, Metabolic Activation: RAT, LIVER, S-9, AROCLOR 1254, Method: STANDARD PLATE) “inactive; negative”; (Test System: E. COLI, Strain/Indicator: WP2 UVRA, Metabolic Activation: RAT, LIVER, S-9, Method: STANDARD PLATE) “inactive; negative”; (Test System: UDS RODENT HEPATOCYTES, Strain/Indicator: THY INCORP (NON-S-PHASE), Metabolic Activation: NONE, Method: AUTORADIOGRAPHY) “inactive; negative”.
